# Where two headings read alike, the source gives them in different places.
# Experiments:
# [1] = system: Staphylococcus aureus ATCC 29213; assay: AST QC assay on AD-1 instrument, QC isolate S. aureus ATCC 29213; assay type: cell-based; conditions: for Result (phenotypic positive/negative test): resistance phenotype; for Result (MIC value): unit assumed
# Text: (§1) The reportable range for the AST QC assay in some examples are adjusted such that the selected QC isolates have an MIC that is within the reportable range of the QC Assay. These extended ranges are only applied to QC testing and are not applied to AST assessment of patient samples. The process for assigning an MIC value to the QC organisms is the same or similar to that used for patient samples. […] This approach allows testing of, for example, CLSI recommended QC isolates without affecting the algorithms that are optimized around antimicrobial breakpoints. The algorithms used in ID QC or AST QC testing include those described above, for example, when the QC test samples are microbial isolates. For ID QC testing utilizing target microbial nucleic acids coupled to a bead, positive detection is achieved by comparing the cumulative count in the target (e.g., Green fluorescence channel) only against a threshold of objects that have brightness exceeding bead autofluorescence. Negative control detection is achieved by doing the same for eubacteria (e.g., Red fluorescence) channel only. For example, the number of bright red objects should not exceed a threshold in order to pass negative control.
# In addition, the CLSI required QC isolates for the relevant antimicrobial resistance phenotype assays (MRSA/MSA, and MLSb) may also be tested. When following CLSI recommendations, routine testing of a designated susceptible isolate as well as testing of designated resistant isolates for each new lot and/or new shipment of reagent kits should be performed. These isolates, therefore, may be included in the QC Assay. For example, Cefoxitin may be tested with Staphylococcus aureus ATCC 29213 as the susceptible isolate and Staphylococcus aureus ATCC 43300 may be tested as the resistant isolate.
# (§2) The results of the identification assay drive antibiotic selection for antimicrobial susceptibility testing. The remaining samples undergo a pre-growth step to normalize growth rates during the approximately 1-hour FISH ID assay. The concentration of organisms in the purified inoculum was determined by repeating the quantitation process with a universal nucleic acid stain as previously described herein. […] Following cell immobilization, antimicrobial solutions in Mueller-Hinton agar were dispensed into the flowcells. Different antimicrobials were tested in separate flowcells, and only a single concentration of each antimicrobial was used. A growth control consisting of Mueller-Hinton agar without any antimicrobial was included for each run. A dark-field microscope and camera produced time-lapse images approximately every 10 minutes of progenitor cells growing into clones of daughter cells in each flowcell. The agar ensured daughter cells were immobilized and remained localized to each growing clone. Resistant clones grew while susceptible clones arrest or lyse over time (FIG. 90).
# Custom image analysis software assigned unique spatial XY coordinates to individual progenitor cells (FIG. 91), allowing each growing clone across a series of time-lapse images to be identified. The intensity of each clone can be used as a metric of clone mass in each image. By measuring over time, this metric was used to generate growth curves for each individual clone (FIG. 92). The pattern of cell responses was used to determine the susceptibility of the overall population. […]
# [2] = system: Staphylococcus aureus ATCC 29213; conditions: cited from earlier work
# [3] = system: Staphylococcus aureus ATCC 43300; assay: AST QC assay on AD-1 instrument, QC isolate S. aureus ATCC 43300; assay type: cell-based; conditions: resistance phenotype
# Text: as §1, with “For example, the number of bright red objects should not exceed a threshold in order to pass negative control.” left out
# The results of the identification assay drive antibiotic selection for antimicrobial susceptibility testing. […] The concentration of organisms in the purified inoculum was determined by repeating the quantitation process with a universal nucleic acid stain as previously described herein. […]
# [4] = system: Staphylococcus aureus ATCC 43300; conditions: S. aureus ATCC 43300, cited from earlier work
# [5] = system: methicillin-susceptible S. aureus (MSSA); assay: Time-lapse imaging of isolates growing in cefoxitin (MSSA); assay type: cell-based; conditions: by 4.5 hours (FIG. 90)
# Protocol: as §2
# [6] = system: methicillin-resistant S. aureus (MRSA); assay: Time-lapse imaging of isolates growing in cefoxitin (MRSA); assay type: cell-based; conditions: by 4.5 hours (FIG. 90)
# Protocol: as §2
# [7] = system: Escherichia coli ATCC 35218; assay: AST QC assay on AD-1 instrument, QC isolate E. coli ATCC 35218; assay type: cell-based; conditions: unit assumed
# Text: as §1
# as §2, with “A dark-field microscope and camera produced time-lapse images approximately every 10 minutes of progenitor cells growing into clones of daughter cells in each flowcell. The agar ensured daughter cells were immobilized and remained localized to each growing clone. Resistant clones grew while susceptible clones arrest or lyse over time (FIG. 90).” left out
# Pseudomonas strains = assay: Growth of Pseudomonas strains in nutrient-depleted vs standard Mueller-Hinton media with antibiotic, automated microscopy; assay type: cell-based
# Protocol: A series of growth media was formulated with […] strength of standard Mueller-Hinton nutrients (3 g beef infusion 17.5 g casein hydrolysate, 1.5 g starch, the final product being pH adjusted to neutral at 25° C.) while maintaining the agar concentration at 0.94% in the culture media. The effect of this depleted-nutrient media formulation on bacterial cell growth was evaluated with more than 50 strains of Pseudomonas in the presence of a panel of beta-lactam antibiotics. Cells were imaged using automated microscopy as described above. […] FIGS. 85A-C plots the log of bacterial dark phase intensity versus time, which is proportional to measuring cell mass in culture. FIGS. 85D-F are a quantitative representation of the data presented in panels FIGS. 85A-C expressed as rate of bacterial cell division.
compound,measurement,setting,value
CO[C@@]1(NC(=O)Cc2cccs2)C(=O)N2C(C(=O)O)=C(COC(N)=O)CS[C@@H]21 [Cefoxitin],Result (phenotypic positive/negative test),[1]; AST only report (Table 10),NEG
same,Result (phenotypic positive/negative test),[1]; ID and AST report (Table 11),NEG
same,Organism QC Range (Positive/Negative phenotype),"[2]; AST QC panel (Table 9), S. aureus ATCC 29213",Negative
same,Expected (phenotypic positive/negative test),"[2]; AST only report (Table 10), S. aureus ATCC 29213",NEG
same,Expected (phenotypic positive/negative test),"[2]; ID and AST report (Table 11), S. aureus ATCC 29213",NEG
same,Result (phenotypic positive/negative test),[3]; AST only report (Table 10),POS
same,Result (phenotypic positive/negative test),[3]; ID and AST report (Table 11),POS
same,Organism QC Range (Positive/Negative phenotype),[4]; AST QC panel (Table 9),Positive
same,Expected (phenotypic positive/negative test),[4]; AST only report (Table 10),POS
same,Expected (phenotypic positive/negative test),[4]; ID and AST report (Table 11),POS
same,Clone growth in time-lapse images,[5],arrested or lysed
same,Clone growth in time-lapse images,[6],continue to grow
CC[C@H]1OC(=O)[C@H](C)[C@@H](O[C@H]2C[C@@](C)(OC)[C@@H](O)[C@H](C)O2)[C@H](C)[C@@H](O[C@@H]2O[C@H](C)C[C@H](N(C)C)[C@H]2O)[C@](C)(O)C[C@@H](C)C(=O)[C@H](C)[C@@H](O)[C@]1(C)O [Erythromycin],Result (MIC value),[1]; AST only report (Table 10),0.6 µg/mL
same,Organism QC Range (MIC),"[2]; AST QC panel (Table 9), CLSI recommended isolate S. aureus ATCC 29213, in µg/mL (unit assumed)",0.25-1
same,Expected (MIC acceptance range),"[2]; AST only report (Table 10), S. aureus ATCC 29213, in µg/mL (unit assumed)",0.25-1
Ampicillin-Sulbactam,Result (MIC value),[7]; AST only report (Table 10),16 µg/mL
Piperacillin-Tazobactam,Result (MIC value),[7]; AST only report (Table 10),1 µg/mL
same,Result (MIC value),[7]; ID and AST report (Table 11),1 µg/mL
same,Susceptibility of the bacteria,Pseudomonas strains; Pseudomonas isolate of FIGS. 85A-F,susceptible
same,Bacterial growth / replication pattern in presence of antibiotic,"Pseudomonas strains; nutrient-depleted media (approx. 87% reduction in Mueller-Hinton nutrients), within 3.5 hours",substantially impaired growth
same,Antibiotic effect on filamentous cells,"Pseudomonas strains; standard Mueller-Hinton media, 2 to 3.5 hours of exposure",no discernable antibiotic effect
Trimethoprim-Sulfamethoxazole,Result (MIC value),[1]; AST only report (Table 10),0.25 µg/mL
same,Result (MIC value),[1]; ID and AST report (Table 11),0.25 µg/mL

# — US10253355B2, “Instrument and system for rapid microorganism identification and antimicrobial agent susceptibility testing” (Accelerate Diagnostics, Inc., priority 2015, dated 2019)
